In the NIST ThermoML archive (doi:10.1021/je9008014):

Experiment: xn = mol fraction of the nth substance listed
Settings: 101 kPa, Liquid; for mass density: Pycnometric method

CCOCCOCCOCCO [2-(2-(2-ethoxyethoxy)ethoxy)ethanol] + O
Settings | mass density [kg/m3] | viscosity [mPa·s]
293.15 K, x1 = 0.01119 | 1006.9 | 1.484
293.15 K, x1 = 0.02492 | 1016.6 | 2.221
293.15 K, x1 = 0.04128 | 1026.2 | 3.256
293.15 K, x1 = 0.06284 | 1035.1 | 4.832
293.15 K, x1 = 0.09179 | 1040.8 | 6.993
293.15 K, x1 = 0.1317 | 1042.7 | 9.102
293.15 K, x1 = 0.1905 | 1042.2 | 10.54
293.15 K, x1 = 0.2885 | 1038.7 | 11.29
293.15 K, x1 = 0.4019 | 1033.6 | 11.34
293.15 K, x1 = 0.4747 | 1031.1 | 10.93
293.15 K, x1 = 0.6076 | 1027.3 | 10.06
293.15 K, x1 = 0.7399 | 1024.4 | 9.168
293.15 K, x1 = 0.8176 | 1022.9 | 8.738
293.15 K, x1 = 0.8956 | 1021.8 | 8.353
293.15 K, x1 = 1 | 1020.6 | 7.796
298.15 K, x1 = 1 | 1016.3 | 6.739
303.15 K, x1 = 0.01119 | 1003.7 | 1.129
303.15 K, x1 = 0.02492 | 1012.6 | 1.595
303.15 K, x1 = 0.04128 | 1020.7 | 2.344
303.15 K, x1 = 0.06284 | 1028.7 | 3.349
303.15 K, x1 = 0.09179 | 1032.8 | 4.589
303.15 K, x1 = 0.1317 | 1034.9 | 5.955
303.15 K, x1 = 0.1905 | 1033.9 | 7.032
303.15 K, x1 = 0.2885 | 1029.8 | 7.522
303.15 K, x1 = 0.4019 | 1024.9 | 7.547
303.15 K, x1 = 0.4747 | 1022.3 | 7.378
303.15 K, x1 = 0.6076 | 1018.5 | 6.868
303.15 K, x1 = 0.7399 | 1015.5 | 6.386
303.15 K, x1 = 0.8176 | 1014.1 | 6.178
303.15 K, x1 = 0.8956 | 1013.1 | 5.884
303.15 K, x1 = 1 | 1011.9 | 5.657
308.15 K, x1 = 1 | 1008.1 | –
313.15 K, x1 = 0.01119 | 999.7 | 0.9341
313.15 K, x1 = 0.02492 | 1007.5 | 1.261
313.15 K, x1 = 0.04128 | 1014.8 | 1.747
313.15 K, x1 = 0.06284 | 1021.8 | 2.429
313.15 K, x1 = 0.09179 | 1025.3 | 3.265
313.15 K, x1 = 0.1317 | 1026.5 | 4.072
313.15 K, x1 = 0.1905 | 1025.5 | 4.899
313.15 K, x1 = 0.2885 | 1021.4 | 5.382
313.15 K, x1 = 0.4019 | 1016.5 | 5.391
313.15 K, x1 = 0.4747 | 1013.9 | 5.226
313.15 K, x1 = 0.6076 | 1010.2 | 4.953
313.15 K, x1 = 0.7399 | 1007.4 | 4.586
313.15 K, x1 = 0.8176 | 1006.1 | 4.457
313.15 K, x1 = 0.8956 | 1005.1 | 4.315
313.15 K, x1 = 1 | 1003.9 | 4.185
323.15 K, x1 = 0.01119 | 995.1 | 0.7411
323.15 K, x1 = 0.02492 | 1002.1 | 1.013
323.15 K, x1 = 0.04128 | 1008.7 | 1.369
323.15 K, x1 = 0.06284 | 1014.4 | 1.859
323.15 K, x1 = 0.09179 | 1017.4 | 2.436
323.15 K, x1 = 0.1317 | 1018.1 | 3.015
323.15 K, x1 = 0.1905 | 1016.8 | 3.558
323.15 K, x1 = 0.2885 | 1012.7 | 3.942
323.15 K, x1 = 0.4019 | 1007.7 | 3.965
323.15 K, x1 = 0.4747 | 1005.2 | 3.885
323.15 K, x1 = 0.6076 | 1001.6 | 3.735
323.15 K, x1 = 0.7399 | 998.8 | 3.552
323.15 K, x1 = 0.8176 | 997.6 | 3.509
323.15 K, x1 = 0.8956 | 996.6 | 3.437
323.15 K, x1 = 1 | 995.5 | 3.326
333.15 K, x1 = 0.01119 | 989.6 | 0.6117
333.15 K, x1 = 0.02492 | 995.7 | 0.8193
333.15 K, x1 = 0.04128 | 1001.9 | 1.092
333.15 K, x1 = 0.06284 | 1006.2 | 1.433
333.15 K, x1 = 0.09179 | 1008.5 | 1.853
333.15 K, x1 = 0.1317 | 1008.7 | 2.252
333.15 K, x1 = 0.1905 | 1007.3 | 2.652
333.15 K, x1 = 0.2885 | 1003.1 | 2.923
333.15 K, x1 = 0.4019 | 998.5 | 3.006
333.15 K, x1 = 0.4747 | 996.1 | 2.953
333.15 K, x1 = 0.6076 | 992.5 | 2.879
333.15 K, x1 = 0.7399 | 989.8 | 2.774
333.15 K, x1 = 0.8176 | 988.6 | 2.728
333.15 K, x1 = 0.8956 | 987.7 | 2.697
333.15 K, x1 = 1 | 986.7 | 2.627
